This is an account of results in PubChem BioAssay AID2060501 (Molecular Pharmacology Branch, DTP, NCI, 2025).

Where “and” joins values, the source holds several entries; their conditions need not be identical. Equal entries are not always repeated.

In the test the test system is 282377-053-R-J1-PDC complex spheroids, viability. The test is described as follows: Anticancer human tumor 282377-053-R-J1-PDC patient-derived colon adenocarcinoma cell line growth inhibition [GQUAD]. Conditions: for viability, T/C: stronger effect = lower value. From the text: DNA G-quadruplex Stabilizer Agents in Combinations in Complex Spheroids
A high-throughput screen of multi-cell type tumor spheroids was designed to identify active combinations of DNA G-quadruplex stabilizer agents and targeted small molecules. Complex spheroids include a stromal component modeled by human endothelial cells (HUVEC) and fibroblasts modeled by human mesenchymal stem cells (MSCs). The concentration ranges selected for each drug and investigational agent were based upon clinically achievable concentrations if the clinical Cmax of the agent was known.
Compounds. The drugs and investigational agents: pidnarulex (CX-5461; NSC782164), APTO-253 (NSC789042), BRACO-19 (NSC847499), peposertib (NSC802822), ceralasertib (NSC780249), elimusertib (NSC800525), camonsertib (NSC841442), AZD-1390 (NSC803789), olaparib (NSC753686), talazoparib (NSC767125), ART-558 (NSC835418), sotorasib (NSC818433), MRTX-1133 (NSC836407), SN-38 (NSC673596), topotecan (NSC609699), etoposide (NSC141540), doxorubicin (NSC123127), gemcitabine (NSC613327), 5-fluorouracil (NSC19893), paclitaxel (NSC125973), vemurafenib (NSC761431), panobinostat (NSC761190), R-306465 (JNJ-16241199; NSC773264), adavosertib (NSC754352), TP-3654 (NSC805149), carboplatin (NSC241240), KSQ-4279 (NSC840948), and staurosporine (NSC755774) were obtained from the National Cancer Institute (NCI) Developmental Therapeutics Program Chemical Repository (34). The FDA-approved anticancer drug set is available from the NCI Developmental Therapeutics Program. […] The stock solutions were prepared in dimethyl sulfoxide (DMSO, Sigma-Aldrich, St. Louis, MO, cat. D2650) at 800-fold the tested concentration and stored at -70 degrees C prior to their use. All drugs and investigational agents were tested over a range starting from a high concentration at or near the clinical Cmax and decreasing in half-log increments. If the clinical Cmax for an agent had not been determined, the highest concentration tested was 10 microM.
2.3 Cell Culture. All cells were maintained in an incubator at 37 degrees C and 5% CO2 with 95% humidity. The PDC lines were cultured according to standard operating procedures established by the NCI PDMR. All PDCs were thawed and cultured in Matrigel-coated flasks prepared with a working solution of 1X Ham's F-12 nutrient mix, without supplementation (Invitrogen, cat. 11765054), 100 U/mL penicillin-streptomycin (Invitrogen, cat. 15140122), and 2.5% Matrigel (Corning Inc., cat. 354248) for the first three passages. The 857933-349-R-J2-PDC line was cultured in 6C/Colon 1B media, which includes advanced DMEM/F-12 (Thermo Fisher Scientific, cat. 12634028), 10 mM HEPES (Thermo Fisher Scientific, cat. 15630080), 1X GlutaMAX supplement (Thermo Fisher Scientific, cat. 35050061), 0.1 mg/mL primocin (InvivoGen, cat. ant-pm-2), 10% defined fetal bovine serum, heat inactivated (HyClone Laboratories Inc., cat. SH30070.03HI), 50% L-WRN conditioned media (ATCC, cat. CRL-3276), 1.25 mM N-Acetyl-L-cysteine (Sigma-Aldrich, cat. A9165), 10 mM nicotinamide (Sigma-Aldrich, cat. N0636), 1X B-27 supplement (Thermo Fisher Scientific, cat. 17504044), 1X N-2 supplement (Thermo Fisher Scientific, cat. 17502048), 10 microM Y-27632 dihydrochloride (Tocris Bioscience, cat. 1254), and 50 ng/mL human EGF recombinant protein (Thermo Fisher Scientific, cat. PHG0311). The 485176-168-R4-J1-PDC line was cultured in Panc media, which includes all 6C/Colon 1B media components plus 100 ng/mL human FGF-10 (Thermo Fisher Scientific, cat. 100-26), 500 nM SB-431542 (Selleckchem, cat. S1067), and gastrin (Tocris, cat. 3006).
[…]

[1] abbreviates: curve of first compound, second compound 0.0316 µM.
Setting [2] is: curve of first compound, second compound 0.1 µM.
Where [3] appears, read: curve of first compound, second compound 0.316 µM.
Setting [4] is: curve of first compound, second compound 1 µM.
Setting [5] is: curve of first compound, second compound 3.16 µM.
Setting [6] is: curve of first compound, second compound 10 µM.
[7] abbreviates: second compound 0.0316 µM, first compound 0.0316 µM.
[8] abbreviates: second compound 0.0316 µM, first compound 0.1 µM.
[9] abbreviates: second compound 0.0316 µM, first compound 0.316 µM.
The mark [10] stands for this setting: second compound 0.0316 µM, first compound 1 µM.
The mark [11] stands for this setting: second compound 0.0316 µM, first compound 3.16 µM.
The mark [12] stands for this setting: second compound 0.0316 µM, first compound 10 µM.
The mark [13] stands for this setting: second compound 0.1 µM, first compound 0.0316 µM.
Where [14] appears, read: second compound 0.1 µM, first compound 0.1 µM.
Setting [15] is: second compound 0.1 µM, first compound 0.316 µM.
Where [16] appears, read: second compound 0.1 µM, first compound 1 µM.
Setting [17] is: second compound 0.1 µM, first compound 3.16 µM.
Where [18] appears, read: second compound 0.1 µM, first compound 10 µM.
The mark [19] stands for this setting: second compound 0.316 µM, first compound 0.0316 µM.
[20] abbreviates: second compound 0.316 µM, first compound 0.1 µM.
Where [21] appears, read: second compound 0.316 µM, first compound 0.316 µM.
Setting [22] is: second compound 0.316 µM, first compound 1 µM.
[23] abbreviates: second compound 0.316 µM, first compound 3.16 µM.
The mark [24] stands for this setting: second compound 0.316 µM, first compound 10 µM.
Where [25] appears, read: second compound 1 µM, first compound 0.0316 µM.
Setting [26] is: second compound 1 µM, first compound 0.1 µM.
Setting [27] is: second compound 1 µM, first compound 0.316 µM.
The mark [28] stands for this setting: second compound 1 µM, first compound 1 µM.
[29] abbreviates: second compound 1 µM, first compound 3.16 µM.
The mark [30] stands for this setting: second compound 1 µM, first compound 10 µM.
[31] abbreviates: second compound 3.16 µM, first compound 0.0316 µM.
[32] abbreviates: second compound 3.16 µM, first compound 0.1 µM.
Setting [33] is: second compound 3.16 µM, first compound 0.316 µM.
Where [34] appears, read: second compound 3.16 µM, first compound 1 µM.
Setting [35] is: second compound 3.16 µM, first compound 3.16 µM.
Where [36] appears, read: second compound 3.16 µM, first compound 10 µM.
[37] abbreviates: second compound 10 µM, first compound 0.0316 µM.
Setting [38] is: second compound 10 µM, first compound 0.1 µM.
[39] abbreviates: second compound 10 µM, first compound 0.316 µM.
Setting [40] is: second compound 10 µM, first compound 1 µM.
Setting [41] is: second compound 10 µM, first compound 3.16 µM.
Setting [42] is: second compound 10 µM, first compound 10 µM.
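Further: spheroids exposed to compounds for 7 days before readout.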
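Wherever viability, T/C is given: percent of vehicle DMSO control viability with 100% = untreated-like growth.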

One may read the IC50 as the point on the concentration scale where inhibition reaches its midpoint. What is called viability, T/C is the result in the treated group divided by that in the control group, in per cent. Regarding `CC(C)(O)C1CCC(Nc2ccc3ncc(-c4cccc(C(F)(F)F)c4)n3n2)CC1` (stereo not drawn) + Cc1cnc(CNC(=O)c2c(=O)c3ccc(N4CCCN(C)CC4)nc3n3c2sc2ccccc23)cn1, the IC50 is, setting by setting: under setting [1], 1680 nM; under setting [2], 910 nM; under setting [3], 1330 nM; under setting [4], 361 nM; under setting [5], less than 31.6 nM; under setting [6], less than 31.6 nM. Moreover, the viability, T/C runs as follows: under setting [7], 96.9%; under setting [8], 83.3%; under setting [9], 93.2%; under setting [10], 78.4%; under setting [11], 12%; under setting [12], 18.7%. For the same molecule, the viability, T/C under setting [13] was 113%; the viability, T/C under setting [14] is 79.1%; the viability, T/C under setting [15] is 68.8%; the viability, T/C under setting [16] was 62.5%; the viability, T/C under setting [17] was 16%; the viability, T/C under setting [18] was 20.9%. The viability, T/C was 77.9% under setting [19]; 82.2% under setting [20]; 77.9% under setting [21]; 57.9% under setting [22]; 22.4% under setting [23]; 29.7% under setting [24]. Besides, the viability, T/C runs as follows: under setting [25], 62.1%; under setting [26], 45.2%; under setting [27], 46.5%; under setting [28], 40.5%; under setting [29], 7.32%; under setting [30], 18.9%. The viability, T/C is, setting by setting: under setting [31], 45%; under setting [32], 45%; under setting [33], 42%; under setting [34], 34.3%; under setting [35], 0.13%; under setting [36], 0.15%. The viability, T/C was 34.2% under setting [37]; 21.1% under setting [38]; 12.3% under setting [39]; 0.24% under setting [40]; 0.89% under setting [41]; 0.2% under setting [42].
`Nc1ccn(C2OC(CO)C(O)C2(F)F)c(=O)n1` (stereo not drawn): the viability, T/C is 97% and 108% and 101% (compound 0.0316 µM); 76% and 78.1% and 78.7% (compound 0.1 µM); 37.7% and 50.4% and 35.4% (compound 0.316 µM); 34.4% (2×) and 26.7% (compound 1 µM); 25.4% and 37.8% and 20.9% (compound 3.16 µM); 18.3% and 20.1% and 17.3% (compound 10 µM). In addition, where the note is “curve of compound”, the IC50 was 235 nM and 382 nM and 219 nM.
As for `CC(C)n1c(=O)n(C)c2cnc3cc(F)c(-c4ccc(OCCCN5CCCCC5)nc4)cc3c21`, the viability, T/C was 104% and 100% and 77.6% (compound 0.0316 µM); 107% and 87.5% and 98.7% (compound 0.1 µM); 94.4% and 95.6% and 105% (compound 0.316 µM); 94.8% and 106% and 92.8% (compound 1 µM); 102% and 97.1% and 111% (compound 3.16 µM); 113% and 80.3% and 102% (compound 10 µM). The IC50 (curve of compound) is more than 10000 nM.
Turning to `CC1COCCN1c1cc(C2(O)CC3CCC(C2)O3)c2cnn(-c3ccn[nH]3)c2n1` (stereo not drawn), the viability, T/C by setting is: (compound 0.0316 µM) 80.7% and 77.9% and 79.5%; (compound 0.1 µM) 70% and 87.8% and 83.6%; (compound 0.316 µM) 61.8% and 55.8% and 62.1%; (compound 1 µM) 33.2% and 34.6% and 34.8%; (compound 3.16 µM) 24.2% and 20.5% and 35.2%; (compound 10 µM) 16.9% and 16.5% and 24.2%. Further, the IC50 (curve of compound) is 491 nM and 478 nM and 530 nM.
Regarding `COc1cc(C2c3cc4c(cc3C(OC3OC5COC(C)OC5C(O)C3O)C3COC(=O)C23)OCO4)cc(OC)c1O` (stereo not drawn) + Cc1cnc(CNC(=O)c2c(=O)c3ccc(N4CCCN(C)CC4)nc3n3c2sc2ccccc23)cn1, the IC50 under setting [1] is more than 10000 nM; the IC50 under setting [2] was 9720 nM; the IC50 under setting [3] was more than 10000 nM; the IC50 under setting [4] is more than 10000 nM; the IC50 under setting [5] came to 979 nM; the IC50 under setting [6] came out at 337 nM. Further, the viability, T/C by setting is: under setting [7], 127%; under setting [8], 95%; under setting [9], 126%; under setting [10], 90%; under setting [11], 68.3%; under setting [12], 50.8%. Also, the viability, T/C under setting [13] is 109%; the viability, T/C under setting [14] was 91.3%; the viability, T/C under setting [15] is 107%; the viability, T/C under setting [16] was 76.1%; the viability, T/C under setting [17] is 72.7%; the viability, T/C under setting [18] is 48.6%. Also, the viability, T/C runs as follows: under setting [19], 103%; under setting [20], 91.9%; under setting [21], 87.1%; under setting [22], 68.8%; under setting [23], 66.4%; under setting [24], 50.9%. Besides, the viability, T/C is 70.7% under setting [25]; 51.3% under setting [26]; 70.2% under setting [27]; 63% under setting [28]; 62.7% under setting [29]; 41.6% under setting [30]. Moreover, the viability, T/C is 60.5% under setting [31]; 57.5% under setting [32]; 49.8% under setting [33]; 48.5% under setting [34]; 52.1% under setting [35]; 37.4% under setting [36]. Further, the viability, T/C runs as follows: under setting [37], 45.4%; under setting [38], 49.7%; under setting [39], 56.3%; under setting [40], 49.1%; under setting [41], 42.1%; under setting [42], 26.3%.
For `Cc1[nH]c2ccccc2c1CCNCc1ccc(/C=C/C(=O)NO)cc1`, the viability, T/C (compound 0.000999 µM) was 108% and 110% and 106%; the viability, T/C (compound 0.00316 µM) was 88.2% and 101% and 95.5%; the viability, T/C (compound 0.00999 µM) is 84.7% and 96.6% and 98.5%; the viability, T/C (compound 0.0316 µM) is 97.4% and 118% and 105%; the viability, T/C (compound 0.0999 µM) is 115% and 98.6% and 72.2%. Moreover, the IC50 (curve of compound) is > 316 nM and 185 nM and 145 nM.
`CC[C@@]1(O)C(=O)OCc2c1cc1n(c2=O)Cc2cc3c(CN(C)C)c(O)ccc3nc2-1`: the viability, T/C (compound 0.000999 µM) was 98.2% and 99.2% and 107%; the viability, T/C (compound 0.00316 µM) was 92.4% and 87.1% and 103%; the viability, T/C (compound 0.00999 µM) was 106% and 101% and 87.3%; the viability, T/C (compound 0.0316 µM) is 89.3% and 95.4% and 117%; the viability, T/C (compound 0.0999 µM) was 84% and 109% and 93.1%; the viability, T/C (compound 0.316 µM) is 57.4% and 106% and 60.5%. Besides, the IC50 (curve of compound) was more than 316 nM.
